Source: paper PMC7641127, “MCL1 binds and negatively regulates the transcriptional function of tumor suppressor p73” (Cell Death & Disease, 2020)
Like-named read-outs stand apart in the source and are kept apart here. No end group written: not given here.

Tests used:
[1] = biological target: T1, recombinant MCL1 (Homo sapiens, UniProt Q07820); assay: Direct FPA of FITC-labeled peptides with MCL1; type: binding; conditions: N-terminally FITC-labeled peptide with recombinant MCL1; 1x PBS pH 7.4; 30 min; at or approaching limit of detection of probe
T1 construct: made in house; host or cells: E. coli BL21 (DE3)
Source text: (§1) We next sought to determine which core domain, the DBD or the TD, of p73 mediates binding to MCL1. […] Therefore, we expressed and purified recombinant p73DBD and tested its ability to associate with MCL1 using competitive fluorescence polarization assay (FPA) analysis and NMR chemical shift perturbation (CSP) studies (Fig. 2a, Supplementary Fig. 1). FPA is a biochemical assay that can either determine the binding constant between a recombinant protein and a fluorescently labeled small molecule or peptide (i.e. direct FPA as a measure of KD) or it can determine the concentration in which an unknown binding partner can compete with bound fluorescently labeled ligand (competitive FPA as a measure of IC50).
The buffer used for all assays is 1× PBS, pH 7.4. All experiments were completed in technical and biological triplicate.

[2] = biological target: T1, recombinant MCL1; assay: Competitive fluorescence polarization assay (FPA), MCL1 with F-BAK probe; type: binding
Source text: as §1
In a flat-bottom, untreated black 96-well microplate (ThermoScientific), 80 μL recombinant protein is incubated with 10 μL 10× unlabeled peptide or small molecule inhibitor shaking at 300 rpm for 20 min to allow for binding. Once complete, 10 μL of 10× FITC-peptide is added per well. The plate is covered with an opaque lid to shake for an additional 40 min. After 1 h incubation is complete, the plate is read using the FP-Fluorescein setting (1.0 s, CW lamp filter—F485, emission filter, F535) on a Perkin Elmer Victor X5 plate reader. The buffer used for all assays is 1× PBS, pH 7.4. All experiments were completed in technical and biological triplicate. All data plotted in Fig. 2 is one representative assay in technical triplicate.

[3] = tested on: PC-3 cells; assay: TaqMan RT-qPCR of p73 target genes in PC-3; type: cell-based, human; conditions: normalized to GAPDH, biological and technical triplicate
Method: All RT-qPCR reactions were performed in biological triplicate. A master mix for each target or housekeeping gene was made with 15 μL RNAse-free water, 3 μL 20× RT-qPCR Primer Mix (ThermoScientific), 12 μL 25 ng/μL cDNA, and 30 μL TaqMan Universal Master Mix II, with UNG (Applied Biosystems, 2020-02-29). The mix was aliquoted out 20 μL/well in technical triplicate with the final concentration of cDNA at 100 ng/reaction. PCR reactions were performed on an Applied Biosystems ViiA 7 Real-Time PCR System for 40 cycles starting at 25 °C. Each cycle is 50 °C for 2 min, 95 °C for 10 min, and 15 s, and 60 °C for 1 min. Temperature shifts at 1.6 °C/s. All data are collected and analyzed using Applied Biosystems QuantStudio Real-Time PCR Software. All target genes analyzed were normalized to GAPDH. All primers had FAM-MGB probes. All TaqMan primers were ordered from ThermoFisher Scientific with the target gene and Assay ID included: CDKN2A/p21 (Hs00355782_m1), PMAIP1/NOXA (Hs00560402_m1), GADD45A (Hs00169255_m1), BBC3/PUMA (Hs00248075_m1), GAPDH (Hs02758991_g1).
Four known p73 target genes were analyzed by TaqMan RT-qPCR. After a baseline was established, cells were treated with b an siRNA targeting MCL1 or c 2 μM MCL1 inhibitor A1210477. […] All experiments were performed in biological and technical triplicate. Bar graphs shown with SEM of one representative assay. […]

[4] = tested on: PC-3 cells; assay: Annexin V/PI staining with FACS; type: cell-based, human; conditions: N=4
Method: Cells were seeded in a six-well plate and treated through various treatments to modulate MCL1 or p73 expression as they were in previous experiments. After the 24 or 48 h treatment, cells were collected through trypsin dissociation and washed twice with sterile DPBS. Cell number was counted on a BioRad Automated Cell Counter. After final wash, cells were pelleted at 1000×g for 10 min. The cell pellet was resuspended in 1× Annexin V binding buffer (BD Pharmingen, 556454) and 5 × 10^5 cells were transferred to a FACS tube containing 5 μL propidium iodide (PI) staining solution (BD Pharmingen, 51-66211E) and 5 μL FITC-Annexin V (BD Pharmingen, 556419). Cells were incubated for 15 min in the dark. FACS was collected on a BD LSRFortessa and analyzed using FlowJo v10. Compensation controls used for analysis include unstained cells and cells stained for each individual fluorophore (FITC-Annexin V and Cy5-PI). Gating strategy eliminated cell debris and doublets through forward and side scatter plots.
Supplemental Fig 3. […] Cells were stained with Annexin V and Propidium Iodide (PI) to determine the apoptotic cell population. […] All plots shown here are representative plots of the data set, N=4.

[5] = tested on: H1299 cells; assay: TaqMan RT-qPCR of p73 target genes in H1299; type: cell-based, human; conditions: 24 h, normalized to GAPDH, biological and technical triplicate
Method: Four known p73 target genes were analyzed by TaqMan RT-qPCR. After a baseline was established, H1299 cells were treated with b an siRNA targeting MCL1 (48 h) or c 2 μM MCL1 inhibitor A1210477 (24 h). […] All experiments were performed in biological and technical triplicate. Bar graphs shown with SEM of one representative assay. A Student’s t-test was applied to each target gene for each treatment for statistical analysis, p-values: *p < 0.05, **p < 0.01, ***p < 0.001, ****p < 0.0001.
RNA was purified from human cancer cell lines for RT-qPCR with the SurePrep TrueTotal RNA Purification Kit (Fisher BioReagents, BP2800-50) by the manufacturer’s protocol. The final concentration of purified RNA was measured using a Nanodrop 2000c spectrophotometer. Once RNA concentration was determined, a single step cDNA synthesis reaction was made in TempAssure PCR 8-Tube Strips (USA Scientific, 1402-2500) in technical duplicate as follows: 100 ng RNA, 16 μL nuclease-free water (Ambion, 1512103), and 4 μL qScript cDNA SuperMix (Quanta BioSciences Inc., 84034). […] Concentration was determined after the cDNA synthesis on the Nanodrop 2000c spectrophotometer. cDNA was diluted to 25 ng/μL into Molecular Biology Grade Water (Corning, 46-000-CM) and stored at −20 °C for future use. […]
All RT-qPCR reactions were performed in biological triplicate. […] All target genes analyzed were normalized to GAPDH. […]

[6] = tested on: PC-3 cells; assay: Cellular fractionation and western blot after cisplatin; type: cell-based, human; conditions: low dose (printed 5 mM), 24 hours, vs 0.5% DMF, western blot
Method: Cellular localization was performed using the NE-PER Nuclear and Cytoplasmic Extraction Reagent Kit (ThermoScientific, 78833) per the manufacturer’s protocol. The western blot quantification analysis was completed in the Image Lab 6.0.1 software using the Adjusted Volume tool. All assays were completed in biological triplicate with one representative image for each treatment group and/or cell line.
Cells were fractionated in cytosolic and nuclear compartments. Protein localization was analyzed through Western Blot analysis. Lamin A/C and GAPDH were used for fractionation controls. Band quantifications using the adjusted volume for each individual band are below for reference. All paired samples are normalized to the WCL treated with DMF alone.

[7] = tested on: 15N MCL1; assay: 2D [15N,1H]-HSQC NMR chemical shift perturbation of 15N MCL1; type: binding, human; conditions: 50 μM 15N MCL1 + 200 μM ligand; 1x PBS pH 6.8; significant CSP = >2SD above mean (0.046 ppm)
Method: Fig. 3 P73 binds to the BH3-binding groove of MCL1. a 2D [^15N, ^1H]-HSQC spectra of 50 μM ^15N MCL1 + 2% DMSO (black contours) or 50 μM ^15N MCL1 + 200 μM p73_23mer TD-derived peptide (red contours). Amino acids with significant CSP (Δδ > 0.046 ppm: G217, F228, N239, D241, D242, H252, I264, V265, L267, I268, E292, L298, V299, T301, D304, and H320) or residues that were unable to be identified in the bound spectra (V216, G219, V220, V243, […], S247, R263, G271, R303, K308, and F315) are labeled for reference. b CSP quantified as a function of Δδ ppm for each amino acid residue. The first dotted line indicates 1SD from the mean (0.023) and the solid line indicates 2SD from the mean (0.046). Amino acids with significant CSP were identified as >2SD above the mean (blue). Amino acids that were unable to be identified in the bound spectra were set to −0.01 to differentiate them from peaks with no CSP (red). […]
The NMR HSQC spectra were acquired using a Bruker 600 MHz magnet at the Central Alabama High Field NMR Facility. […] The resulting spectra were analyzed using Computer-Aided Resonance Assignment (CARA) and the peak lists were exported to Microsoft Excel for the CSP quantification and calculation of the mean and standard deviation. […]
Supplemental Fig 1. […] The two cut offs represent the 1 and 2 SD cut offs determined through the 50 µM 15N hMCL1 + 200 µM p7323mer spectra in Fig 2.

[8] = competitive FPA, 50 nM recombinant MCL1, 10 nM F-BAK, unlabeled peptide titration, 1x PBS pH 7.4, 20 min pre-incubation + 40 min, mean ± SD, biological and technical triplicate, read-out: FPA IC50

T1 sequence (Q07820 whole entry): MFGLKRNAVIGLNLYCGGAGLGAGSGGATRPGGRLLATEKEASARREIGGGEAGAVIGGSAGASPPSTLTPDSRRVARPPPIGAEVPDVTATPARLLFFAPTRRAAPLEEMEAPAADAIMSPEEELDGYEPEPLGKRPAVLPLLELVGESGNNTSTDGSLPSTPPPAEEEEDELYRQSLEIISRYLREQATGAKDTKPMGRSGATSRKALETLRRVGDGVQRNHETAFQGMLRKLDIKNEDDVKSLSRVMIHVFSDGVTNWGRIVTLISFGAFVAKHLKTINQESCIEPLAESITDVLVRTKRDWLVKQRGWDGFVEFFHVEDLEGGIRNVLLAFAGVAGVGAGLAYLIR

GRENFEILMKLKESLELMELVPQ-NH2 [p73_23mer]
Kd [1]: ≤ 5 nM | IC50 ([2]; competitive FPA, 50 nM recombinant MCL1, 10 nM F-BAK, unlabeled peptide titration, 1x PBS pH 7.4, 20 min pre-incubation + 40 min, mean ± SD, biological and technical triplicate, SD, read-out: FPA IC50): 982 ± 195 nM

VPQPLVDSYRQQQQLLQR-NH2 [α2]
IC50 [2, 8]: > 10000 nM

Cc1nn(C)c(COc2ccc(N3CCN(S(=O)(=O)N(C)C)CC3)cc2)c1-c1cccc2c(CCCOc3cccc4ccccc34)c(C(=O)O)n(CCN3CCOCC3)c12 [A1210477]
p73 target gene expression (p21, NOXA, GADD45, PUMA) ([3]; 2 μM): significant increases in gene expression in at least three of the four p73 target genes | IC50 [2]: 2590 nM | Apoptotic induction, Annexin V/PI ([4]; 2 μM, 24 hours, vs 0.5% DMSO): no increase in apoptotic induction | p73 target gene expression (p21, NOXA, GADD45, PUMA) ([5]; 2 μM): significant increases in gene expression in at least three of the four p73 target genes

N.N.[Cl][Pt][Cl] [cisplatin]
MCL1 protein levels in cytoplasmic and nuclear fractions [6]: increase MCL1 levels in both the cytoplasmic and nuclear compartments | p73 target gene expression (p21, NOXA, GADD45, PUMA) ([3]; 5 μM, 24 h): statistically significant increases in expression in at least three of the four p73 target genes | Apoptosis, Annexin V/PI, positive control ([4]; 50 µM): significant increase in apoptosis | p73 target gene expression (p21, NOXA, GADD45, PUMA) ([5]; 10 μM): statistically significant increases in expression in at least three of the four p73 target genes

DEDTYYLQVR-NH2 [β1]
IC50 [2, 8]: > 10000 nM

p73DBD: recombinant p73 DNA-binding domain alone, amino acids 112–311
Chemical shift perturbation of MCL1 [7]: No amino acids in this spectra exhibited significant shifts | Association with MCL1 in competitive FPA ([2]; 50 nM recombinant MCL1, 10 nM F-BAK, titration of unlabeled protein): Neither NMR nor competitive FPA analysis exhibited significant changes
